Where a SMILES comes first, the peptide text is derived from it. Where no end group is shown, it is not given here. [ ]: non-standard residue; d: D form. The star is where a group is joined. Phe(4-N(CH2CH2Cl)2) = N[C@@H](Cc1ccc(N(CCCl)CCCl)cc1)C(=O)O; 5FAM = O=C1OC2(c3ccc(O)cc3Oc3cc(O)ccc32)c2ccc(C(=O)*)cc21
Columns and labels:
[1] = system: 9L-Luc gliosarcoma cells; assay: In vitro cytotoxicity (BrdU and bioluminescence assays); format: cell-based; settings: 1-100 μM, 1-hour exposure, viability at 24 hours
Method: In vitro cytotoxicity studies and uptake analysis. […] 9L luciferase-expressing (9L-Luc) gliosarcoma cells (provided by Dr. Brian Ross University of Michigan, Ann Arbor) were incubated in a 96 well plate and grown to 95% confluence. 9L-Luc cells were cultured in Delbecco's Modified Eagle Medium (DMEM) with fetal bovine serum (10%), streptomycin ([…]) and penicillin (100 U/ml) and 1-glutamine 2 mM in an atmosphere 95/5% O2 and CO2 with 100% humidity. They were exposed to 1, 10, and 100 μM of the compound for 1-hour and assessed for viability at 24 hours. Data for all three assays was normalized to the survival of untreated cells. Assays were run in triplicate and fluorescence values were averaged for each treatment. The 3% hydrogen peroxide treated cells provided positive controls.

[2] = system: 9L cells; settings: one hour exposure, MTT and BrdU assays after 7 days
Method: Cytotoxicity Study. 9L cells were grown to confluence in 96-well plates. Individual wells were exposed to no treatment or increasing concentrations of melphalan, TAT monomer, melphalan-conjugated TAT monomer (obtained from a supplier) or melphalan-conjugated TAT dimer (obtained from a supplier). Cells were incubated under these conditions for one hour. Growth factors were then reintroduced and the cells were grown for a week with standard periodic care. After 7 days, MTT and BrdU assays were used to assess cell viability. All tests were done in quadruplicate and data normalized to the untreated group. […] IV injection of the […]

[3] = system: 9L-gliosarcoma cells; assay: Membrane fluidity with beta-cyclodextrin cholesterol depletion; format: cell-based; settings: 4° C. and 37° C., FIG. 33C
Method: 9L-gliosarcoma cells were grown to confluence in T-75 in recommended culture media. Membrane fluidity was determined by using commercially available “Gene Marker” kit. Fluorescein tagged TAT was used for determining uptake of the cell penetrating peptide. To alter membrane fluidity TAT uptake was determined at different temperatures of 4° C., 15° C. 25° C., 35° C. and 37° C.
The role of cholesterol in affecting membrane fluidity was then assessed. Cholesterol content of the membrane was measured using the commercially available Fillipin-III assay. Beta-cyclodextrin was used to deplete membrane cholesterol. The effect of cyclodextrin on TAT uptake of 100 μL at 0.1 mg/mL for 10 minutes at different temperatures was then assessed. Fluorescence was assessed by flow cytometry and confocal imaging was performed as needed.

[4] = system: 9L glioma tumor; assay: In vivo uptake of TAT dimer versus monomer by IA-TCH (MSI and confocal imaging); parameters: species or system rat; settings: dimer 0.25 mg, monomer 0.125 mg, five rats each
Method: An additional experiment was performed to assess the in vivo uptake of fluorescein-labeled TAT dimer by IA-TCH. About 14 days after 9L glioma tumor implantation, rats were anesthetized and prepared for TAT dimer delivery experiments. TAT dimer was conjugated with fluorescein such that its concentrations in post mortem samples could be determined immediately by multispectral imaging and confocal imaging. TAT dimer (0.25 mg) and monomer (0.125 mg) were tested using IA-TCH delivery both containing equal amounts of fluorescein were evaluated. […] Animals were sacrificed 15 minutes after TAT injection. Brain tissue was harvested.

[5] = system: 9L glioma; assay: Survival after IA-TCH delivery of melphalan or melphalan-conjugated TAT; format: in vivo, rat; settings: for Bleeding events: IA-TCH
Method: Thirteen 9L glioma-implanted anesthetized rats were intubated and ventilated. The carotid artery of each rat was exposed and cannulated but the ICA was not isolated to minimize surgical trauma. The rats were subjected to delivery of melphalan with adenosine, esmolol and cold saline via IA-TCH. Six rats received 0.25 mg of melphalan, three rats received 0.5 mg melphalan and one rat received 1 mg of melphalan. Remaining rats were either treated with saline or left untreated. After the IA-TCH injection, rats were allowed to recover and sacrificed when pre-determined criteria were met.
A similar procedure was performed on seven 9L glioma-implanted rats using melphalan-conjugated TAT monomer at a dose of 1 mg (0.16 mg melphalan content). However, the ICA was isolated with an aneurysm clip. Survival of the rats was monitored and images of the brains of the rats were obtained by MRI. The same procedure was performed using 5 rats with melphalan-conjugated TAT dimer at a dose of 1 mg (0.08 mg melphalan content).

[6] = Delivery of cell-penetrating peptides to the brain of healthy rats, confocal microscopy; format: in vivo, rat; settings: rat, in vivo
Description: Animal preparation, IA-TCH injection, and brain tumor implantation. Animal protocols were approved by the Columbia University Institutional Animal Care and Use Committee (IACUC). Studies were primarily conducted on Sprague-Dawley rats weighing 250 to 300 grams. In the case of electron multiplying charge-coupled device imaging studies, Fisher 344 rats implanted with 9L brain tumors were utilized. The surgical preparation including anesthesia, carotid and femoral cannulation, cerebral blood flow and vital sign monitoring, as well as in vivo fluorescence imaging have been previously described in detail.
IA injections of cell-penetrating peptides (CPPs) were made during TCH as 65 μL pulses totaling 1 ml in volume. TCH was produced by a bolus injection of adenosine, esmolol, and cold saline. Animals were allowed to hemodynamically recover from TCH and euthanized 10 minutes after injection. Uptake of CPPs was assessed with a fluorescence camera and with confocal fluorescence microscopy.
Cell-penetrating peptides. Two experimental cell-penetrating peptides were tested: 1. octaarginine, also called (Arg)8 or R-8 (SEQ ID NO: 13) and 2. trans-activator of transcription or TAT (Lifetien Inc.). The 14 amino acid peptide sequence for TAT is […]COOH (SEQ ID NO: 11). Both cell-penetrating peptides (CPPs) were labeled with fluorescein so that their distribution could be identified by multispectral imaging and with fluorescence microscopy of the frozen brain sections.
Fluorescence and electron multiplying charge-coupled device imaging.

Molecule: COc1cccc2c1C(=O)c1c(O)c3c(c(O)c1C2=O)C[C@@](O)(C(=O)CO)C[C@@H]3O[C@H]1C[C@H](N)[C@H](O)[C@H](C)O1 [Dox, Doxorubicin]
- Relative toxicity (cellular viability) [1]: highest toxicity

Molecule: N=C(N)NCCC[C@H](NC(=O)CN)C(=O)N[C@@H](CCCCN)C(=O)N[C@@H](CCCCN)C(=O)N[C@@H](CCCNC(=N)N)C(=O)N[C@@H](CCCNC(=N)N)C(=O)N[C@@H](CCC(N)=O)C(=O)N[C@@H](CCCNC(=N)N)C(=O)N[C@@H](CCCNC(=N)N)C(=O)N[C@@H](CCCNC(=N)N)C(=O)N1CCC[C@H]1C(=O)N1CCC[C@H]1C(=O)N[C@@H](CCC(N)=O)C(=O)N[C@@H](CCC(N)=O)C(=O)O [TAT monomer]
- Relative cytotoxicity (cell viability) [2]: cytotoxicity increases from TAT monomer to melphalan-conjugated TAT monomer to melphalan-conjugated TAT dimer to melphalan alone

Molecule: OC[C@H]1O[C@@H]2O[C@H]3[C@H](O)[C@@H](O)[C@@H](O[C@H]4[C@H](O)[C@@H](O)[C@@H](O[C@H]5[C@H](O)[C@@H](O)[C@@H](O[C@H]6[C@H](O)[C@@H](O)[C@@H](O[C@H]7[C@H](O)[C@@H](O)[C@@H](O[C@H]8[C@H](O)[C@@H](O)[C@@H](O[C@H]1[C@H](O)[C@H]2O)O[C@@H]8CO)O[C@@H]7CO)O[C@@H]6CO)O[C@@H]5CO)O[C@@H]4CO)O[C@@H]3CO [beta-cyclodextrin]
- Effect on membrane fluidity [3]: increased fluidity at higher temperatures (37° C.) than at lower temperature (4° C.) in a dose-dependent manner

Molecule: N=C(N)NCCC[C@H](NC(=O)CNC(=O)[C@H](CCC(N)=O)NC(=O)[C@H](CCC(N)=O)NC(=O)[C@@H]1CCCN1C(=O)[C@@H]1CCCN1C(=O)[C@H](CCCNC(=N)N)NC(=O)[C@H](CCCNC(=N)N)NC(=O)[C@H](CCCNC(=N)N)NC(=O)[C@H](CCC(N)=O)NC(=O)[C@H](CCCNC(=N)N)NC(=O)[C@H](CCCNC(=N)N)NC(=O)[C@H](CCCCN)NC(=O)[C@H](CCCCN)NC(=O)[C@H](CCCNC(=N)N)NC(=O)CNC(=O)c1ccc2c(c1)C(=O)OC21c2ccc(O)cc2Oc2cc(O)ccc21)C(=O)N[C@@H](CCCCN)C(=O)N[C@@H](CCCCN)C(=O)N[C@@H](CCCNC(=N)N)C(=O)N[C@@H](CCCNC(=N)N)C(=O)N[C@@H](CCC(N)=O)C(=O)N[C@@H](CCCNC(=N)N)C(=O)N[C@@H](CCCNC(=N)N)C(=O)N[C@@H](CCCNC(=N)N)C(=O)N1CCC[C@H]1C(=O)N1CCC[C@H]1C(=O)N[C@@H](CCC(N)=O)C(=O)N[C@@H](CCC(N)=O)C(=O)O [fluorescein-labeled TAT dimer, 5-FAM-GRKKRRQRRR PPQQGRKKRR QRRRPPQQ-COOH] (5FAM-GRKKRRQRRRPPQQGRKKRRQRRRPPQQ-OH)
- Tumor selective delivery [4]: able to achieve tumor selective drug delivery

Molecule: N[C@@H](Cc1ccc(N(CCCl)CCCl)cc1)C(=O)O [melphalan, Melphalan, reference compound]
- Relative cytotoxicity (cell viability) [2]: cytotoxicity increases from TAT monomer to melphalan-conjugated TAT monomer to melphalan-conjugated TAT dimer to melphalan alone
- Dose group with peak survival ([5]; 0.25, 0.5, 1 mg IA-TCH): peak survival was found in the 0.25 mg melphalan group
- Bleeding events [5]: significant bleeding
- Survival ([5]; melphalan 0.25, 0.5 or 1 mg IA-TCH, p=0.07 versus controls): 30 ± 8 days

Molecule: N=C(N)NCCC[C@H](NC(=O)CNC(=O)[C@H](CCC(N)=O)NC(=O)[C@H](CCC(N)=O)NC(=O)[C@@H]1CCCN1C(=O)[C@@H]1CCCN1C(=O)[C@H](CCCNC(=N)N)NC(=O)[C@H](CCCNC(=N)N)NC(=O)[C@H](CCCNC(=N)N)NC(=O)[C@H](CCC(N)=O)NC(=O)[C@H](CCCNC(=N)N)NC(=O)[C@H](CCCNC(=N)N)NC(=O)[C@H](CCCCN)NC(=O)[C@H](CCCCN)NC(=O)[C@H](CCCNC(=N)N)NC(=O)CNC(=O)[C@@H](N)Cc1ccc(N(CCCl)CCCl)cc1)C(=O)N[C@@H](CCCCN)C(=O)N[C@@H](CCCCN)C(=O)N[C@@H](CCCNC(=N)N)C(=O)N[C@@H](CCCNC(=N)N)C(=O)N[C@@H](CCC(N)=O)C(=O)N[C@@H](CCCNC(=N)N)C(=O)N[C@@H](CCCNC(=N)N)C(=O)N[C@@H](CCCNC(=N)N)C(=O)N1CCC[C@H]1C(=O)N1CCC[C@H]1C(=O)N[C@@H](CCC(N)=O)C(=O)N[C@@H](CCC(N)=O)C(=O)O [melphalan-conjugated TAT dimer] (H-[Phe(4-N(CH2CH2Cl)2)]GRKKRRQRRRPPQQGRKKRRQRRRPPQQ-OH)
- Relative cytotoxicity (cell viability) [2]: cytotoxicity increases from TAT monomer to melphalan-conjugated TAT monomer to melphalan-conjugated TAT dimer to melphalan alone
- Bleeding events [5]: No significant bleeding events

Molecule: N=C(N)NCCC[C@H](NC(=O)CNC(=O)[C@@H](N)Cc1ccc(N(CCCl)CCCl)cc1)C(=O)N[C@@H](CCCCN)C(=O)N[C@@H](CCCCN)C(=O)N[C@@H](CCCNC(=N)N)C(=O)N[C@@H](CCCNC(=N)N)C(=O)N[C@@H](CCC(N)=O)C(=O)N[C@@H](CCCNC(=N)N)C(=O)N[C@@H](CCCNC(=N)N)C(=O)N[C@@H](CCCNC(=N)N)C(=O)N1CCC[C@H]1C(=O)N1CCC[C@H]1C(=O)N[C@@H](CCC(N)=O)C(=O)N[C@@H](CCC(N)=O)C(=O)O [melphalan-conjugated TAT monomer]
- Relative cytotoxicity (cell viability) [2]: cytotoxicity increases from TAT monomer to melphalan-conjugated TAT monomer to melphalan-conjugated TAT dimer to melphalan alone
- Tolerability ([5]; 1 mg IA-TCH): well tolerated
- Bleeding events [5]: Only one of seven animals showed some evidence of a tail bleed

Molecule: octaarginine (RRRRRRRR; also: FITC label, position not given here) [FITC labeled R8, reference compound]
- Deposition by hemisphere [6]: detectable deposition preferentially to the hemisphere ipsilateral to carotid injection
- Distribution in the brain (semi-quantitative) [6]: more discrete and predominantly within vessel walls

Reference: US11980667B2, “Short TAT oligomers for drug delivery” (The Trustees of Columbia University in the City of New York, priority 2017, dated 2024)
